Test results taken from patent US20040253292A1, “MR-signal emitting coatings” (Wisconsin Alumni Research Foundation, priority 2003, published 2004).

Assay: Diffusion of a fluorescent probe in swollen gelatin gel (FRAP)
Assay type: physicochemical
Details: coating thickness 60 μm; diffusion coefficient 9×10^ m^2s^−1
Text: To assess the stability of DTPA[Gd(III)] in the gelatin coating, the diffusion of a fluorescence probe in gelatin was studied by the technique of fluorescence recovery after photobleaching (FRAP). The instrument and data analysis scheme are described in Kim, S. H. and Yu, H., J. Phys. Chem. 1992, 96, 4034, which is hereby fully incorporated by reference. Fluorescein was used as the fluorescence probe due, in part, to its molecular size being roughly the same as that of DTPA[Gd(III)].
The focus of the study was to examine the possible retardation effects of gelatin concentration and cross-link density on the diffusion, which was determined at room temperature, i.e., below the gel point of gelatin. The diffusion of fluorescein probe slows down with the increase of gelatin concentration. The diffusion coefficient decreases from 1.5×10^−10 to 9×10^−12 m^2s^−1 when the concentration of gelatin increases from 9% to 40%. […] Accordingly, the probe diffusion is more likely controlled by the concentration of gelatin rather than the cross-link density. On the other hand, the cross-link density may determine the swelling ratio of gelatin, i.e., the concentration of gelatin in aqueous solution. […]

time to diffuse out of the gelatin coating: about 67 seconds
SMILES: O=C(O)CN(CCN(CC(=O)O)CC(=O)O)CCN(CC(=O)O)CC(=O)O [DTPA, diethylenetriaminepentaacetic acid]
